Measurements published in ChEMBL document CHEMBL5338725, “New Glucosamine-Based TLR4 Agonists: Design, Synthesis, Mechanism of Action, and In Vivo Activity as Vaccine Adjuvants” (J Med Chem, 2023).
Active and inactive are the calls of the source. The rule behind the calls is not given here.

Assays:
[1] = Cytotoxicity against PMA-differentiated human THP1-Xblue cells assessed as reduction in cell viability at 0.1 to 25 uM incubated for 18 hrs by MTT assay; type: toxicity, cell-based; details: dose 0.1-25 µM
[2] = target: Toll-like receptor 4 (Homo sapiens) (UniProt O00206); assay: Agonist activity at human TLR4 in HEK-Blue hTLR4 cells at 0.1 to 25 uM incubated for 18 hrs by SEAP reporter gene based Quanti-blue assay; type: cell-based; details: filed as agonist, dose 0.1-25 µM
THP1-Xblue [3] = assay: Activation of NF-KappaB/AP-1 signalling pathway in PMA-differentiated human THP-1 X-blue cells assessed as induction of SEAP release at 0.1 to 25 uM incubated for 18 hrs by QUANTI-Blue assay; type: cell-based; details: dose 0.1-25 µM
Mus musculus [4] = assay: Immuno-adjuvant activity in OVA immunized C57BL/6J mouse model assessed as increase in anti-OVA IgG1 antibody at 10 ug, sc administered on day 0 and as booster dose on day 21 and measured after 42 days by ELISA; type: functional, organism-based; details: dose 10.0 µg, time 42.0 day
Mus musculus [5] = assay: Immuno-adjuvant activity in OVA immunized C57BL/6J mouse model assessed as increase in anti-OVA IgG2b antibody at 10 ug, sc administered on day 0 and as booster dose on day 21 and measured after 42 days by ELISA; type: functional, organism-based; details: dose 10.0 µg, time 42.0 day
RAW-Blue = assay: Activation of NF-kappaB/AP-1 transcriptional activity in mouse RAW-Blue cells at 0.1 uM incubated for 18 hrs by quanti-blue/SEAP-based spectrophotometry analysis; type: cell-based; details: filed as activator
[6] = target: Toll-like receptor 4 (Homo sapiens) (UniProt O00206); assay: Activation of TLR4 in PMA-differentiated human THP1-Xblue cells assessed as induction of TNFalpha release at 25 uM incubated for 6 hrs by ELISA method; type: cell-based; details: filed as activator
THP1-Xblue [7] = assay: Activation of […] in PMA-differentiated human THP1-Xblue cells assessed as p-IRF3 translocation from cytosol to nucleus at 25 uM measured after 2 to 4 hrs by immunofluorescence analysis; type: cell-based; details: time 2-4 hrs
THP1-Xblue [8] = assay: Activation of NF-kappaB/AP-1 transcriptional activity in human THP1-Xblue cells at 10 uM incubated for 18 hrs by quanti-blue/SEAP-based spectrophotometry analysis; type: cell-based; details: filed as activator
[9] = target: Toll-like receptor 4 (Homo sapiens) (UniProt O00206); assay: Activation of TLR4 in PMA-differentiated human THP1-Xblue cells assessed as induction of IL-1beta release incubated for 6 hrs by ELISA method; type: cell-based; details: filed as activator, dose 0.1-25 µM
Mus musculus [10] = assay: Immuno-adjuvant activity in OVA immunized C57BL/6J mouse model assessed as increase in anti-OVA IgG antibody at 10 ug, sc administered on day 0 and as booster dose on day 21 and measured on day 42 by ELISA; type: functional, organism-based; details: dose 10.0 µg
THP1-Xblue [11] = assay: Activation of NF-kappaB pathway in PMA-differentiated human THP1-Xblue cells assessed p65 translocation from cytosol to nucleus at 25 uM incubated for 4 hrs by immunofluorescence analysis; type: cell-based
[12] = target: Toll-like receptor 4 (Homo sapiens) (UniProt O00206); assay: Activation of TLR4 in PMA-differentiated human THP1-Xblue cells assessed as induction of IL-1beta release at 25 uM by incubated for 6 hrs ELISA method; type: cell-based; details: filed as activator
PBMC = assay: Cytotoxicity against human PBMC cells assessed as reduction in cell viability at 0.1 to 25 uM incubated for 18 hrs by MTT assay; type: toxicity, cell-based; details: dose 0.1-25 µM
[13] = target: MAP kinase p38 (Homo sapiens) (UniProt O15264+Q15759+Q16539+P53778); assay: Activation of p38 MAPK phosphorylation in PMA-differentiated human THP1-Xblue cells at 25 uM incubated for 1.5 to 2.5 hrs by Western blot analysis; type: cell-based; details: filed as activator, time 1.5-2.5 hrs
[14] = target: Toll-like receptor 4 (Homo sapiens) (UniProt O00206); assay: Activation of TLR4 in PMA-differentiated human THP1-Xblue cells assessed as induction of IL-6 secretion at 0.1 to 25 uM by incubated for 6 hrs ELISA method; type: cell-based; details: dose 0.1-25 µM
Mus musculus [15] = assay: Immuno-adjuvant activity in OVA immunized C57BL/6J mouse model assessed as anti-OVA […] antibody production at 10 ug, sc administered on day 0 and as booster dose on day 21 and measured after 42 days by ELISA; type: functional, organism-based; details: dose 10.0 µg, time 42.0 day
[16] = target: NACHT, LRR and PYD domains-containing protein 3 (Homo sapiens) (UniProt Q96P20); assay: Activation of NLRP3 inflammasome in PMA-differentiated human THP1-Xblue cells assessed as IL-1beta production at 25 uM preincubated for 1 hr with MCC950 followed by compound addition and measured after 6 hrs by ELISA method; type: cell-based
[17] = target: Toll-like receptor 4 (Homo sapiens) (UniProt O00206); assay: Agonist activity at TLR4 in human PBMC assessed as induction of IL-1beta production incubated for 6 hrs by ELISA method; type: cell-based; details: filed as agonist, dose 10-25 µM
[18] = target: Toll-like receptor 4 (Homo sapiens) (UniProt O00206); assay: Agonist activity at TLR4 in human PBMC assessed as induction of TNF production incubated for 6 hrs by ELISA method; type: cell-based; details: filed as agonist, dose 10-25 µM
HEK-Blue hTLR4 = assay: Agonist activity at human TLR4 in HEK-Blue hTLR4 cells at 100 ng/ml incubated for 18 hrs by SEAP reporter gene based Quanti-blue assay; type: cell-based; details: filed as agonist
Mus musculus [19] = assay: Immuno-adjuvant activity in OVA immunized C57BL/6J mouse model assessed as increase in anti-OVA IgG2c antibody at 10 ug, sc administered on day 0 and as booster dose on day 21 and measured after 42 days by ELISA; type: functional, organism-based; details: dose 10.0 µg, time 42.0 day

Sequence of Toll-like receptor 4 (Homo sapiens) (O00206 whole entry): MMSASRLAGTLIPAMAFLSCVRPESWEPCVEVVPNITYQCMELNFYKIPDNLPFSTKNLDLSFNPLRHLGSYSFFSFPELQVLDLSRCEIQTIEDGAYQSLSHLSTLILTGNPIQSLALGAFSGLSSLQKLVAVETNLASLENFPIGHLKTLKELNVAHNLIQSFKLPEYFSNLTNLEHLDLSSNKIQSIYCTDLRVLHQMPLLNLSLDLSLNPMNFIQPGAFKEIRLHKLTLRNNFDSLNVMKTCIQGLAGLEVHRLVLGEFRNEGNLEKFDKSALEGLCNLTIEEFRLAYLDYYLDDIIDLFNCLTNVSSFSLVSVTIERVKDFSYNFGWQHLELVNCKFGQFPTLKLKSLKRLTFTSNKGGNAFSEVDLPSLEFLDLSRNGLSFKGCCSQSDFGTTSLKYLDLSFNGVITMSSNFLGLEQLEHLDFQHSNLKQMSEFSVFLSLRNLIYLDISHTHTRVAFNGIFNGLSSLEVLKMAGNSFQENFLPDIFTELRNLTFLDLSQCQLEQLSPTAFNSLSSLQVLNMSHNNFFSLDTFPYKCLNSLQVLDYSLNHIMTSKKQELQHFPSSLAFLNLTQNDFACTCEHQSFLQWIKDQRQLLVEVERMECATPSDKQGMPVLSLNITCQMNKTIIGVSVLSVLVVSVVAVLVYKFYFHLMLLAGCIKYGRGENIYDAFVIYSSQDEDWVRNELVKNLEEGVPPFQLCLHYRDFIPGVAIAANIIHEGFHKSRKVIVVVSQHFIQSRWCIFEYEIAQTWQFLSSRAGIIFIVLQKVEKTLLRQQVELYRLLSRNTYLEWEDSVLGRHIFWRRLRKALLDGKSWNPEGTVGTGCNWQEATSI
Sequence of NACHT, LRR and PYD domains-containing protein 3 (Homo sapiens) (Q96P20 whole entry, the tested form may be a part): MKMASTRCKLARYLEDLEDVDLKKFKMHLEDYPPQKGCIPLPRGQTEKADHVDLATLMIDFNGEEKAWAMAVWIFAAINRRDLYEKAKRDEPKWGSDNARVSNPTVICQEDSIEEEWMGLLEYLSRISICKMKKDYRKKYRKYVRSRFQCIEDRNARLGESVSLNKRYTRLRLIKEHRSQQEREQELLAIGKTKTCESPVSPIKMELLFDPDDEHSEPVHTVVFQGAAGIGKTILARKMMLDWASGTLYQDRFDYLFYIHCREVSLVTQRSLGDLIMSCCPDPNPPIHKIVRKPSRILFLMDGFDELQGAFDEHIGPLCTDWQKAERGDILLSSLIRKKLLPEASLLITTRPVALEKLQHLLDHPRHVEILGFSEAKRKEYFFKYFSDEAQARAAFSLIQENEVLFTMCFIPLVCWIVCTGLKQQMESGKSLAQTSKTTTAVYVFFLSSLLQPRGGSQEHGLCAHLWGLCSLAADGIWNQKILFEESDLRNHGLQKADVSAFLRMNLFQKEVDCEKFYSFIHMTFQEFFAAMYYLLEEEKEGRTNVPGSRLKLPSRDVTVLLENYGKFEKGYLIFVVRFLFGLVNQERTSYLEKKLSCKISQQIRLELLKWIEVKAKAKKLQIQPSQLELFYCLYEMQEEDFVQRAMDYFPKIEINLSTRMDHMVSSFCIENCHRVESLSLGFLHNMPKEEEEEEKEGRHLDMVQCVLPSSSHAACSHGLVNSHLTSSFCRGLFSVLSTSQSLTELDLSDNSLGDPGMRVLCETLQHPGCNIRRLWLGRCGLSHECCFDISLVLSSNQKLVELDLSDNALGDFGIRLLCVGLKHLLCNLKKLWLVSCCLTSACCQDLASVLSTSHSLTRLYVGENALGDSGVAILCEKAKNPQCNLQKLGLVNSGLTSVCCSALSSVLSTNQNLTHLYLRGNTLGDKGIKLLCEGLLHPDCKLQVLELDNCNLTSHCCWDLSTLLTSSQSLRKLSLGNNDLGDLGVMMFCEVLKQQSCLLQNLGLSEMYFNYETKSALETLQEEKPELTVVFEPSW

## CCCCCCCCCCCC(=O)N[C@H]1[C@H](OC(=O)CCCCCCCCC)O[C@H](CO)[C@@H](OP(=O)([O-])[O-])[C@@H]1OC(=O)CCCCCCCCC.[Na+].[Na+]
[1]
  Activity: Non-Toxic
[2]
  Activity: Active

## CCCCCCCCCCCC(=O)N[C@H]1[C@@H](OC(=O)CCCCCCCCCCC)O[C@H](CO)[C@@H](OP(=O)(O)O)[C@@H]1OC(=O)CCCCCCCCCCC
THP1-Xblue [3]
  Activity: inactive

## CCCCCCCCCCCC(=O)N[C@H]1[C@H](OC(=O)CCCCCCCCCCC)O[C@H](CO)[C@@H](OP(=O)([O-])[O-])[C@@H]1OC(=O)CCCCCCCCCCC.[Na+].[Na+]
Mus musculus [4]
  Activity: Active
Mus musculus [5]
  Activity: inactive
RAW-Blue
  Activity: Active
[6]
  Activity: Active
THP1-Xblue [7]
  Activity: inactive
THP1-Xblue [8]
  Activity: Active
[9]
  Activity: Dose-Dependent Effect
Mus musculus [10]
  Activity: Active
THP1-Xblue [11]
  Activity: inactive
[12]
  Activity: Active
PBMC
  Activity: Non-Toxic
[13]
  Activity: Active
[14]
  Activity: inactive
[2]
  Activity: Active
Mus musculus [15]
  Activity: inactive
[16]
  Activity: inactive
[17]
  Activity: Dose-Dependent Effect
[18]
  Activity: Dose-Dependent Effect

## CCCCCCCCCCCCCC(=O)N[C@H]1[C@H](OC(=O)CCCCCCCCCCCCC)O[C@H](CO)[C@@H](OP(=O)([O-])[O-])[C@@H]1OC(=O)CCCCCCCCCCCCC.[Na+].[Na+]
[1]
  Activity: Non-Toxic
[2]
  Activity: Active

## CCCCCCCCCCCCCC(=O)O[C@H](CCCCCCCCCCC)CC(=O)N[C@H]1[C@H](OC[C@H]2O[C@H](O)[C@H](NC(=O)C[C@H](O)CCCCCCCCCCC)[C@@H](OC(=O)C[C@H](O)CCCCCCCCCCC)[C@@H]2O)O[C@H](CO)[C@@H](OP(=O)(O)O)[C@@H]1OC(=O)C[C@@H](CCCCCCCCCCC)OC(=O)CCCCCCCCCCCCC
Mus musculus [5]
  Activity: inactive
HEK-Blue hTLR4
  Activity: Active
Mus musculus [19]
  Activity: Active

## CCCCCCCCCCCC(=O)N[C@H]1[C@@H](OP(=O)(O)O)O[C@H](CO)[C@@H](OC(=O)CCCCCCCCCCC)[C@@H]1OC(=O)CCCCCCCCCCC
Mus musculus [4]
  Activity: inactive
Mus musculus [5]
  Activity: inactive
Mus musculus [19]
  Activity: inactive
Mus musculus [15]
  Activity: inactive

## CCCCCCCCCCCCCC(=O)O[C@@H]1O[C@H](CO)[C@@H](OP(=O)([O-])[O-])[C@H](OC(=O)CCCCCCCCCCCCC)[C@H]1NC(=O)CCCCCCCCCCC.[Na+].[Na+]
[6]
  Activity: Active
[9]
  Activity: Dose-Dependent Effect
[1]
  Activity: Non-Toxic
PBMC
  Activity: Non-Toxic
[14]
  Activity: inactive
[2]
  Activity: Active
[17]
  Activity: Dose-Dependent Effect
[18]
  Activity: Dose-Dependent Effect
